Data on 13 molecules can be found in ChEMBL document CHEMBL5154730, “A covalent strategy to target intrinsically disordered proteins: Discovery of novel tau aggregation inhibitors” (Eur J Med Chem, 2022).

The source made the active and inactive calls. The rule behind the calls is not given here.

In test [1] the target is Microtubule-associated protein tau (Homo sapiens) (UniProt P10636). The test can be described thus: Inhibition of tau K18 domain (unknown origin) assessed as inhibition of heparin-induced aggregation by measuring protein aggregation rate at 10 uM by thioflavin-T fluorescence assay relative to control. Also noted: scale not given: the % may be the effect or the level left.

The target is the same in test [2]. The test can be described thus: Covalent binding affinity to tau K18 domain monomer (unknown origin) assessed as labelling at Cys322 residue incubated for 24 hrs and measured following trypsin digestion by LC-MS/MS analysis.
For test [3] the target is unchanged. The test can be described thus: Inhibition of tau K18 domain (unknown origin) assessed as inhibition of heparin-induced aggregation by measuring protein aggregation rate at 1000 uM by thioflavin-T fluorescence assay relative to control. Also noted: scale not given: the % may be the effect or the level left.
The target is the same in test [4]. Nature of the test: Inhibition of tau K18 domain (unknown origin) assessed as inhibition of heparin-induced aggregation by measuring protein aggregation rate at 100 uM by thioflavin-T fluorescence assay relative to control. More on the design: scale not given: the % may be the effect or the level left.
Test [5] shares this target. The test can be described thus: Inhibition of tau K18 domain (unknown origin) assessed as inhibition of heparin-induced aggregation by measuring protein aggregation rate at 50 uM by thioflavin-T fluorescence assay relative to control. More on the design: scale not given: the % may be the effect or the level left.
Test [6] shares this target. Nature of the test: Binding affinity to tau K18 domain (unknown origin) assessed as cysteine labelling at 250 uM incubated for 18 hrs by 15N-HSQC NMR spectroscopy.
The species named for another test is Homo sapiens. Nature of the test: Inhibition of hexahistidine-tagged tau K18 domain C291S/C322S mutant (unknown origin) expressed in Escherichia coli BL21 (DE3) assessed as inhibition of heparin-induced aggregation by measuring protein aggregation rate at 10 uM by thioflavin-T fluorescence assay relative to control. More on the design: scale not given: the % may be the effect or the level left.

Test [7] addresses Microtubule-associated protein tau (Homo sapiens) (UniProt P10636). The test can be described thus: Inhibition of tau K18 domain (unknown origin) assessed as inhibition of heparin-induced aggregation by measuring protein aggregation rate at 250 uM by thioflavin-T fluorescence assay relative to control. More on the design: scale not given: the % may be the effect or the level left.

The target is the same in test [8]. The test can be described thus: Covalent binding affinity to tau K18 domain monomer (unknown origin) assessed as labelling at Cys291 residue incubated for 24 hrs and measured following trypsin digestion by LC-MS/MS analysis.
For test [9] the target is unchanged. Nature of the test: Inhibition of tau K18 domain (unknown origin) assessed as inhibition of heparin-induced aggregation by measuring protein aggregation rate at 500 uM by thioflavin-T fluorescence assay relative to control. Also noted: scale not given: the % may be the effect or the level left.
Test [10] has the same target. Nature of the test: Binding affinity to tau K18 domain (unknown origin) assessed as cysteine labelling efficiency by measuring free thiol ratio at 200 uM incubated for 24 hrs by Ellmans method relative to control. A general note: In Ellman's method for cholinesterases, released thiocholine reacts with DTNB.
The target is the same in test [11]. Nature of the test: Inhibition of tau K18 domain (unknown origin) assessed as inhibition of heparin-induced aggregation by measuring reduction in intensity at 215 nm with random coil conformation by CD spectrometry.
Test [12] shares this target. The test can be described thus: Inhibition of tau K18 domain (unknown origin) assessed as inhibition of heparin-induced aggregation by measuring increase in brightness by transmission electron microscopy.

Chain of Microtubule-associated protein tau (Homo sapiens) (P10636 whole entry, the tested form may be a part): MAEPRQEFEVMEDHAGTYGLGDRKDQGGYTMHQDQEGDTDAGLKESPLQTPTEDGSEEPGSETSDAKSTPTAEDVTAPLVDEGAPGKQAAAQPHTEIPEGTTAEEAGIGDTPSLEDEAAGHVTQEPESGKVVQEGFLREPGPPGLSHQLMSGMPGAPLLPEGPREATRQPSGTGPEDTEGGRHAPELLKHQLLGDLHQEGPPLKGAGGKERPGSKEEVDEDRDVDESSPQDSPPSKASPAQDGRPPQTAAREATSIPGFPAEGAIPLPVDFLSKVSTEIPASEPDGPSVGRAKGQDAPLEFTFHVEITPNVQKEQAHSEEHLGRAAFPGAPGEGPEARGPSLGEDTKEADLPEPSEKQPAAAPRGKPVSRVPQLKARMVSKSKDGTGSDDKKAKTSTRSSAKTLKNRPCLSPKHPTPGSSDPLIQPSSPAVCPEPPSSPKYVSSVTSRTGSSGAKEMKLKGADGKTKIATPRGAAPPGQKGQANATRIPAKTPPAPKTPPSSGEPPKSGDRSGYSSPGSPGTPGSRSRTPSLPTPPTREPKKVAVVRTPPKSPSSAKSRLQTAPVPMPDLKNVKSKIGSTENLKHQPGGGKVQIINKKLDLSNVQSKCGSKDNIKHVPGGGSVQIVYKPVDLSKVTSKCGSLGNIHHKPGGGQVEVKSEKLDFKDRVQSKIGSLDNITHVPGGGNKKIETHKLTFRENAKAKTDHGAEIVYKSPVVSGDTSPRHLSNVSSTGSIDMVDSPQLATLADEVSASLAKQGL

In the case of `C=CS(=O)(=O)NCc1cc(C(F)(F)F)cc(C(F)(F)F)c1`, the Activity in [1] is 96.9%.
Still for that read-out and setting: in the case of `C=CS(=O)(=O)Cc1ccc2ccccc2c1` it was 111%; in that of `C=CS(=O)(=O)c1cc(C(F)(F)F)cc(C(F)(F)F)c1`, 107%.
On to `C=CS(=O)(=O)Cc1cc(C(F)(F)F)cc(C(F)(F)F)c1`, for which the outcome in test [2], in [6] and in test [8] was Active. For the same molecule, the Activity is 39.8% in test [3]; 75.3% in test [4]; 39.8% in [1]; 94.4% in test [5]; 86.7% in the test listed under Homo sapiens; 62.9% in [7]. The Activity in test [9] stood at 43.1%; in test [10], 66.3%.
`C=CS(=O)(=O)Cc1ccc(-c2ccc(/C=C3/SC(=S)N(CCC(=O)OCC)C3=O)o2)cc1`: the Activity in test [3] was 29.2%; in [4], 60.3%; in test [1], 29.2%; in test [5] it was 75.4%; in the test listed under Homo sapiens it was 83.4%; in test [7], 50.8%. Besides, the Activity worked out at 40.1% in test [9] and 44.7% in test [10]. Besides, in [11], the inhibition entry was “Active”.
For the molecule `C=CS(=O)(=O)Nc1ccc(C(=O)NCCCCCC(=O)N[C@@H](CCC(=O)O)C(=O)N[C@@H](C)C(=O)N[C@@H](C)C(=O)N[C@@H](CCC(=O)O)C(=O)N[C@@H](C)C(=O)N[C@@H](CCCCN)C(=O)N[C@@H](C)C(=O)N[C@@H](C)C(=O)NC(CCCCn2cc(CNC(=O)[C@H](Cc3c[nH]c4ccccc34)NC3C(=O)c4ccccc4C(=O)C3Cl)nn2)C(=O)O)cc1` (stereo partly drawn), the Activity in test [1] turned out to be 15.7%; in the test listed under Homo sapiens, 57.9%; in [10], 39.7%. In addition, the result in [8] was Active. For the same molecule, the inhibition result in test [12] was “Active”.
Regarding `C=CS(=O)(=O)NCCNC(=O)O[C@H]1CC[C@@]2(C)C(=CC[C@H]3[C@@H]4CC[C@H]([C@H](C)CCCC(C)C)[C@@]4(C)CC[C@@H]32)C1`, the Activity in [1] came to 39.7%; in the test listed under Homo sapiens it was 100%; in test [10], 56.7%. In test [12], the inhibition result was “Active”.
Turning to `C=CS(=O)(=O)c1ccccc1`, the Activity in test [1] was determined as 97.7%.
Still for that read-out and setting: in the case of `C=CS(N)(=O)=O` it was 110%.
Same read-out and setting: for `C=CS(=O)(=O)Cc1cccc2cccnc12` the value was 102%; for `C=CS(=O)(=O)Cc1ccc(C(=O)c2ccccc2)cc1`, 97.3%.
Consider H-DVWMINKKRK-OH, for which the values for the Activity (in test [1]; in the test filed under Homo sapiens) were 38.1% and 29.4%, respectively.
In the case of `C=CS(=O)(=O)Cc1c2ccccc2cc2ccccc12`, the outcome in test [2] and in test [8] was Active. The Activity is 21.3% in [3]; 72% in test [4]; 21.3% in test [1]; 78.2% in [5]; 69.4% in the test listed under Homo sapiens; 54.1% in test [7]. Also, the values for the Activity in test [9] and in test [10] were 43.9% and 34.4%, respectively.
